Assay [1] deals with Staphylococcus aureus ATCC 25923. Nature of the assay: Biofilm inhibition assay (crystal violet). The class given is cell-based. Here is the method: (§1) The ability of the candidate compounds to inhibit biofilm formation was evaluated by determining the minimum biofilm inhibitory concentration (MBIC) against the biofilm-forming strains Staphylococcus aureus ATCC 25923 and Listeria monocytogenes ATCC 7644. Overnight bacterial cultures were diluted in fresh, pre-warmed Mueller–Hinton broth (MHB) and incubated at 37 °C with constant shaking at 220 rpm. Once the cultures reached the exponential growth phase (OD600 = 0.3–0.5), they were standardized to a final concentration of 4 × 10^6 CFU/mL.
(§2) Plates were incubated at 37 °C for 24 to 48 h, depending on the bacterial strain. After incubation, the planktonic cells were carefully aspirated to preserve the integrity of the biofilm layer. Wells were gently rinsed with sterile ultrapure Milli-Q water and air-dried at 60 °C for 1 h to fix the biofilms. Biofilm formation was quantified using a crystal violet (CV) staining method. Wells were stained with 100 µL of 0.1% CV solution and incubated at room temperature for 1 h. Excess dye was removed by rinsing with sterile ultrapure Milli-Q water, followed by air-drying. Bound CV was solubilized with 100 µL of 70% ethanol and incubated for 30 min. The solubilized dye was transferred to a fresh plate, and absorbance was measured at 595 nm using a microplate reader (Bio-Tek EL808, Winooski, VT, USA). Absorbance values were directly proportional to biofilm biomass. Untreated bacterial cultures served as positive controls for biofilm formation, while sterile MHB served as the negative control.

For assay [2] the test system is unchanged. Description: Broth microdilution MIC. It is filed as cell-based. The following applies: for MIC: Staphylococcus aureus, ATCC25923, read-out: Minimum Inhibitory Concentrations (MIC). (Dilution methods test growth across graded concentrations, often in twofold steps.)
Assay [3] concerns Staphylococcus aureus Clinical/MRSA. Nature of the assay: Broth microdilution MIC. It is filed as cell-based. The following applies: Staphylococcus aureus, MRSA, read-out: Minimum Inhibitory Concentrations (MIC).
The subject of assay [4] is Listeria monocytogenes ATCC 7644. Nature of the assay: Biofilm inhibition assay (crystal violet). The following applies: Listeria monocytogenes, ATCC7644, read-out: biofilm inhibition. It is filed as cell-based. Here is the method: as §1
as §2, with “Aliquots (50 µL) of the standardized bacterial suspension were inoculated into 96-well microtiter plates containing the test compounds at final concentrations of 100, 50, 25, and 12.5 µg/mL. Plates” for “Plates”

Assay [5] shares this test system. Nature of the assay: Time-resolved growth kinetics. The class given is cell-based. The following applies: MIC and ½ MIC. Here is the method:
The antimicrobial activity of the candidate compounds against Staphylococcus aureus ATCC 25923 and Listeria monocytogenes ATCC 7644 was further evaluated using a time-resolved growth kinetics assay in 96-well microtiter plates. Overnight bacterial cultures were diluted in fresh, pre-warmed Mueller–Hinton broth (MHB) and incubated at 37 °C with orbital shaking at 220 rpm. Upon reaching the exponential growth phase (OD600 = 0.3–0.5), cultures were standardized to a final concentration of 5 × 10^4 CFU/mL. Aliquots (50 µL) of the standardized inoculum were dispensed into wells containing either no antimicrobial agent (negative control) or the test compounds at concentrations corresponding to ½ MIC and MIC. Bacterial growth was continuously monitored over a 24 h period by measuring absorbance at 595 nm every 10 min using a Bio-Tek EL808 microplate reader (Winooski, VT, USA). Growth kinetics were assessed by comparing the optical density profiles of treated samples against the untreated control. Each experiment was performed independently twice, with all conditions tested in triplicate. Data are presented as the mean values of these replicates.

In a further assay the test system is RPE1 cells. Description: Cytotoxicity MTS assay. It is filed as cell-based, human. The following applies: Homo sapiens, RPE-1, 48 h, read-out: IC50 RPE1. Here is the method: (§3) The cytotoxic potential of the selected drug candidates was evaluated using the CellTiter 96® AQueous One Solution Cell Proliferation Assay (Promega, Madison, WI, USA), following the manufacturer’s protocol. Human cell lines RPE1 and HEK293 were cultured at 37 °C in a humidified incubator with 5% CO2. Test compounds were dissolved in the appropriate growth medium and serially diluted across a range of concentrations in 96-well microtiter plates. Each well was seeded with 5000 cells and incubated for 48 h under standard culture conditions. Following this incubation period, 20 µL of MTS reagent was added to each well, and the plates were further incubated for 3 h to allow for color development. Absorbance was measured at 490 nm using a microplate reader to determine cell viability. Cytotoxicity was quantified as the half-maximal inhibitory concentration (IC50), defined as the concentration of compound that reduced cell viability by 50%. […] IC50 values were calculated using GraFit 6.0 software by plotting compound concentration against absorbance and fitting the data to a sigmoidal dose–response curve.

The next assay has as its system HEK293 cells. Nature of the assay: Cytotoxicity MTS assay. The class given is cell-based, human. The following applies: Homo sapiens, HEK293, 48 h, read-out: IC50 HEK293. Here is the method: as §3
(In general: Formazan colour is commonly taken as a measure of viable cells.)

Assay [6] relates to Escherichia coli ATCC 25922. Description: Broth microdilution MIC. The class given is cell-based. The following applies: Escherichia coli, ATCC25922, read-out: Minimum Inhibitory Concentrations (MIC).
In assay [7] the test system is Listeria monocytogenes ATCC 7644. Description: Broth microdilution MIC. It is filed as cell-based. The following applies: for MIC: Listeria monocytogenes, ATCC7644, read-out: Minimum Inhibitory Concentrations (MIC), Listeria monocytogenes ATCC 7644.
Setting [8] is: S. aureus ATCC 25923, 6.25 µg/mL.
Where [9] appears, read: S. aureus ATCC 25923, 12.5 µg/mL.
[10] abbreviates: S. aureus ATCC 25923, 100 µg/mL.

`CCCCCCCCCCCCCCCCNC1C[N+]2(CCC[N+]34CCC(CC3)C(NCCCCCCCCCCCCCCCC)C4)CCC1CC2` (racemic) [2(QC16)3, (±)-1,1′-(Propane-1,3-diyl) bis(3-(hexadecylamino)quinuclidinium) dibromide]: the biofilm inhibition in [1] (setting [8]) is over 2%; in assay [1] (setting [9]), 11%; in assay [1] (S. aureus ATCC 25923, 25 µg/mL), over 80%; in [1] (S. aureus ATCC 25923, 50 µg/mL) it was “exceeding 90%”; in assay [1] (setting [10]) it was “exceeding 90%”. Besides, the MIC in assay [2] was 38 µM; in [3], over 75 µM; in assay [6] it was over 75 µM; in assay [7], 9 µM. In [4], the inhibition (usually the relative decrease from the control value, in per cent) at 6.25 µg/mL is 91%. The inhibition at 12.5 µg/mL in [4] worked out at 93%. The inhibition at 25 µg/mL in assay [4] is 94%. The inhibition at 50 µg/mL in assay [4] was 94%. Moreover, in [4], the inhibition at 100 µg/mL came to 97%. In assay [5], the “effect on bacterial growth” value is “pronounced inhibitory effect”. For the same compound, the IC50 (as a rule, the concentration that inhibits the measured activity by half) in the assay with RPE1 cells was determined as 69 µM; in the assay with HEK293 cells, 21 µM.

As for `CCCCCCCCCCCCCCCCNC1C[N+]2(CCCCCC[N+]34CCC(CC3)C(NCCCCCCCCCCCCCCCC)C4)CCC1CC2` (racemic) [2(QC16)6, (±)-1,1′-(Hexane-1,6-diyl) bis(3-(hexadecylamino)quinuclidinium) dibromide], the biofilm inhibition was 6% in [1] (setting [8]); over 30% in [1] (setting [9]); over 80% in assay [1] (S. aureus ATCC 25923, 25 µg/mL); over 90% in assay [1] (S. aureus ATCC 25923, 50 µg/mL); 95% in assay [1] (setting [10]). For the same compound, the “Minimum Inhibitory Concentrations (MIC)” value was 9 µM in assay [2] (Staphylococcus aureus ATCC 25923) and 19 µM in assay [7] (Listeria monocytogenes ATCC 7644). Moreover, the MIC in [2] is 9 µM; in assay [3], 38 µM; in assay [6], 19 µM; in assay [7], 38 µM. For the same compound, the inhibition at 6.25 µg/mL in assay [4] was 40%. The inhibition at 12.5 µg/mL in [4] was 69%. Also, the inhibition at 25 µg/mL in assay [4] amounted to 81%. In addition, the inhibition at 50 µg/mL in assay [4] was 88%. For the same compound, the inhibition at 100 µg/mL in assay [4] worked out at 89%. Further, the “effect on bacterial growth” value in assay [5] is on record as “pronounced inhibitory effect”. The results for the IC50 with RPE1 cells and with HEK293 cells were 5 µM and 7 µM, respectively.

Source of the values: article PMC12473123, “Structure–Function Insights into Quinuclidine-3-One BisQACs: Synthesis, Modulation of Bacterial Resistance, Structure–Activity Relationship, and Biological Profiling” (Pharmaceuticals, 2025).
